According to PubChem BioAssay AID248 (DTP/NCI, 2004):
Several values for one entry are separate records, joined by “and”; a condition that tells them apart may be missing. Equal values may be shown once. Toxic doses and inconclusive results are not listed. Rule as the data show it: active = T/C of 150% or more; inactive = T/C below 125%.

Test system: L1210 leukemia ip in BDF1 mice, survival T/C
Assay: NCI In Vivo Anticancer Drug Screen. Data for tumor model L1210 Leukemia (intraperitoneal) in B6D2F1 (BDF1) mice
Conditions: endpoint: mean survival time, higher = longer survival
Method in brief: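 Each compound was tested against a transplantable tumor grown in mice. The endpoint was survival, with treated animals benchmarked against vehicle controls as a simple ratio.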

[1] = dose: 12.5 mg/kg/injection, schedule: Q04DX003 (ip), vehicle: Klucel (hydroxypropylcellulose) (HPC)
[2] = dose: 100.0 mg/kg/injection, schedule: Q04DX002 (ip), vehicle: saline
[3] = dose: 100.0 mg/kg/injection, schedule: Q01DX001 (ip), vehicle: carboxymethylcellulose (CMC)
[4] = dose: 200.0 mg/kg/injection, schedule: Q01DX001 (ip), vehicle: carboxymethylcellulose (CMC)
[5] = dose: 400.0 mg/kg/injection, schedule: Q01DX001 (ip), vehicle: carboxymethylcellulose (CMC)
[6] = dose: 100.0 mg/kg/injection, schedule: Q01DX001 (ip), vehicle: saline with Tween-80
[7] = dose: 200.0 mg/kg/injection, schedule: Q01DX001 (ip), vehicle: saline with Tween-80
[8] = dose: 400.0 mg/kg/injection, schedule: Q01DX001 (ip), vehicle: saline with Tween-80
[9] = dose: 50.0 mg/kg/injection, schedule: Q01DX001 (ip), vehicle: saline
[10] = dose: 100.0 mg/kg/injection, schedule: Q01DX001 (ip), vehicle: saline
[11] = dose: 200.0 mg/kg/injection, schedule: Q01DX001 (ip), vehicle: saline
[12] = dose: 400.0 mg/kg/injection, schedule: Q01DX001 (ip), vehicle: saline

Measured: T/C

COC(=O)CCC(=O)Nc1ccc(C(=O)CBr)cc1
inactive: dose: 6.25 mg/kg/injection, schedule: Q01DX009 (ip), vehicle: Klucel (hydroxypropylcellulose) (HPC) 98 % of control | dose: 12.5 mg/kg/injection, schedule: Q01DX009 (ip), vehicle: Klucel (hydroxypropylcellulose) (HPC) 96 % of control | [1] 97 % of control | dose: 25.0 mg/kg/injection, schedule: Q01DX009 (ip), vehicle: Klucel (hydroxypropylcellulose) (HPC) 102 % of control | dose: 25.0 mg/kg/injection, schedule: Q04DX003 (ip), vehicle: Klucel (hydroxypropylcellulose) (HPC) 96 % of control | dose: 35.0 mg/kg/injection, schedule: Q01DX009 (ip), vehicle: Klucel (hydroxypropylcellulose) (HPC) 95 % of control | dose: 55.0 mg/kg/injection, schedule: Q01DX009 (ip), vehicle: Klucel (hydroxypropylcellulose) (HPC) 93 % of control

O=C(O)c1ccc([N+](=O)[O-])c(P(=O)(O)O)c1
inactive: dose: 75.0 mg/kg/injection, schedule: Q01DX001 (ip), vehicle: saline 96 % of control | dose: 150.0 mg/kg/injection, schedule: Q01DX001 (ip), vehicle: saline 109 % of control

O=C(COc1ccc2ccccc2c1)Nc1ccc[n+](Cc2ccc(S(=O)(=O)F)cc2)c1
inactive: dose: 100.0 mg/kg/injection, schedule: Q04DX003 (ip), vehicle: saline 106 % of control | dose: 200.0 mg/kg/injection, schedule: Q04DX003 (ip), vehicle: saline 90 % of control | dose: 400.0 mg/kg/injection, schedule: Q04DX003 (ip), vehicle: saline 94 % of control

COc1cc(CC2COC(=O)C2Cc2ccc(OC3OC(CO)C(O)C(O)C3O)c(OC)c2)ccc1O (stereo not given)
inactive: dose: 25.0 mg/kg/injection, schedule: Q04DX002 (ip), vehicle: saline 111 % of control | dose: 50.0 mg/kg/injection, schedule: Q04DX002 (ip), vehicle: saline 104 % of control | [2] 107 % of control

O=C(Cn1ccccc1=O)c1ccccc1
inactive: dose: 100.0 mg/kg/injection, schedule: Q04DX003 (ip), vehicle: saline with Tween-80 101 % of control | dose: 400.0 mg/kg/injection, schedule: Q04DX003 (ip), vehicle: saline with Tween-80 100 % of control

Cc1cc(=O)[nH]c(N=Nc2c(O)[nH]c3ccccc23)n1
inactive: [3] 98 % of control | [4] 93 % of control | [5] 88 % of control

CS(=O)(=O)OCCCl
inactive: dose: 18.8 mg/kg/injection, schedule: Q01DX010 (ip), vehicle: saline 92 % of control and 96 % of control | dose: 37.5 mg/kg/injection, schedule: Q01DX010 (ip), vehicle: saline 92 % of control and 100 % of control | dose: 75.0 mg/kg/injection, schedule: Q01DX010 (ip), vehicle: saline 101 % of control and 104 % of control | dose: 150.0 mg/kg/injection, schedule: Q01DX010 (ip), vehicle: saline 97 % of control and 102 % of control

COc1ccc(OC)c(CCCl)c1
inactive: dose: 100.0 mg/kg/injection, schedule: Q01DX001 (ip), vehicle: acetone 91 % of control | dose: 200.0 mg/kg/injection, schedule: Q01DX001 (ip), vehicle: acetone 93 % of control | dose: 400.0 mg/kg/injection, schedule: Q01DX001 (ip), vehicle: acetone 88 % of control

COc1cccc(C(C)(C)CC(=O)O)c1
inactive: dose: 50.0 mg/kg/injection, schedule: Q01DX009 (ip), vehicle: saline with Tween-80 90 % of control | dose: 100.0 mg/kg/injection, schedule: Q01DX009 (ip), vehicle: saline with Tween-80 90 % of control | dose: 200.0 mg/kg/injection, schedule: Q01DX009 (ip), vehicle: saline with Tween-80 87 % of control

S=P(c1ccccc1)(c1ccccc1)P(=S)(c1ccccc1)c1ccccc1
inactive: dose: 100.0 mg/kg/injection, schedule: Q04DX002 (ip), vehicle: Klucel (hydroxypropylcellulose) (HPC) 100 % of control | dose: 200.0 mg/kg/injection, schedule: Q04DX002 (ip), vehicle: Klucel (hydroxypropylcellulose) (HPC) 92 % of control | dose: 400.0 mg/kg/injection, schedule: Q04DX002 (ip), vehicle: Klucel (hydroxypropylcellulose) (HPC) 92 % of control

Clc1ccccc1/C=N\N=C(N/N=C\c1ccccc1Cl)N/N=C/c1ccccc1Cl
inactive: dose: 15.0 mg/kg/injection, schedule: Q01DX Z (ip), vehicle: carboxymethylcellulose (CMC) 103 % of control | dose: 30.0 mg/kg/injection, schedule: Q01DX Z (ip), vehicle: carboxymethylcellulose (CMC) 97 % of control | dose: 60.0 mg/kg/injection, schedule: Q01DX Z (ip), vehicle: carboxymethylcellulose (CMC) 98 % of control | dose: 120.0 mg/kg/injection, schedule: Q01DX Z (ip), vehicle: carboxymethylcellulose (CMC) 97 % of control | dose: 150.0 mg/kg/injection, schedule: Q01DX Z (oral), vehicle: carboxymethylcellulose (CMC) 101 % of control | dose: 300.0 mg/kg/injection, schedule: Q01DX Z (oral), vehicle: carboxymethylcellulose (CMC) 101 % of control | dose: 600.0 mg/kg/injection, schedule: Q01DX Z (oral), vehicle: carboxymethylcellulose (CMC) 101 % of control | dose: 1200.0 mg/kg/injection, schedule: Q01DX Z (oral), vehicle: carboxymethylcellulose (CMC) 100 % of control

CCC(C)CNCCO (stereo not given)
inactive: dose: 50.0 mg/kg/injection, schedule: Q01DX009 (ip), vehicle: saline 92 % of control | dose: 100.0 mg/kg/injection, schedule: Q01DX009 (ip), vehicle: saline 100 % of control | dose: 200.0 mg/kg/injection, schedule: Q01DX009 (ip), vehicle: saline 103 % of control

CCCCCCCCCCC(C)CCCCCCCC (stereo not given)
inactive: [6] 113 % of control | [7] 100 % of control | [8] 94 % of control

C=CCC1(C(C)C=C)C(=O)NC(=O)NC1=O (stereo not given)
inactive: dose: 75.0 mg/kg/injection, schedule: Q01DX001 (ip), vehicle: carboxymethylcellulose (CMC) 98 % of control | dose: 150.0 mg/kg/injection, schedule: Q01DX001 (ip), vehicle: carboxymethylcellulose (CMC) 91 % of control | dose: 300.0 mg/kg/injection, schedule: Q01DX001 (ip), vehicle: carboxymethylcellulose (CMC) 96 % of control

O=c1cc(Cc2ccc([N+](=O)[O-])cc2)[nH]c(=O)[nH]1
inactive: [9] 101 % of control | [10] 107 % of control | [11] 115 % of control | [12] 115 % of control

COC1OCC(OS(C)(=O)=O)C(NC(C)=O)C1OS(C)(=O)=O (stereo not given)
inactive: [3] 104 % of control | dose: 177.0 mg/kg/injection, schedule: Q01DX001 (ip), vehicle: carboxymethylcellulose (CMC) 100 % of control | [4] 98 % of control | dose: 266.0 mg/kg/injection, schedule: Q01DX001 (ip), vehicle: carboxymethylcellulose (CMC) 94 % of control and 108 % of control | [5] 94 % of control and 103 % of control | dose: 600.0 mg/kg/injection, schedule: Q01DX001 (ip), vehicle: carboxymethylcellulose (CMC) 97 % of control

CCNC(=S)C(=S)NCC
inactive: dose: 3.0 mg/kg/injection, schedule: Q01DX009 (ip), vehicle: Klucel (hydroxypropylcellulose) (HPC) 92 % of control | dose: 3.12 mg/kg/injection, schedule: Q04DX003 (ip), vehicle: Klucel (hydroxypropylcellulose) (HPC) 100 % of control | dose: 6.0 mg/kg/injection, schedule: Q01DX009 (ip), vehicle: Klucel (hydroxypropylcellulose) (HPC) 97 % of control | dose: 6.25 mg/kg/injection, schedule: Q04DX003 (ip), vehicle: Klucel (hydroxypropylcellulose) (HPC) 104 % of control | [1] 98 % of control and 106 % of control

Cc1ccc(C)c(NC(=O)NC2CCCCC2)c1
inactive: [2] 101 % of control | dose: 200.0 mg/kg/injection, schedule: Q04DX002 (ip), vehicle: saline 97 % of control | dose: 400.0 mg/kg/injection, schedule: Q04DX002 (ip), vehicle: saline 103 % of control

Cc1ccc2c(n1)Nc1nc(N)[nH]c(=O)c1S2
inactive: dose: 12.5 mg/kg/injection, schedule: Q04DX003 (ip), vehicle: carboxymethylcellulose (CMC) 97 % of control | dose: 25.0 mg/kg/injection, schedule: Q04DX003 (ip), vehicle: carboxymethylcellulose (CMC) 97 % of control

Cc1ncsc1CCO
inactive: [6] 98 % of control | [7] 102 % of control | [8] 94 % of control

CC1CC(C)(C)OB(OC(C)CC(C)(C)OB2OC(C)CC(C)(C)O2)O1 (stereo not given)
inactive: [9] 102 % of control | [10] 107 % of control | [11] 96 % of control | [12] 107 % of control

CNC(=O)OCc1c(COC(=O)NC)c(-c2ccc(OC)cc2)n2c1CCC2
inactive: dose: 50.0 mg/kg/injection, schedule: Q01DX009 (ip), vehicle: Klucel (hydroxypropylcellulose) (HPC) 109 % of control | dose: 100.0 mg/kg/injection, schedule: Q01DX009 (ip), vehicle: Klucel (hydroxypropylcellulose) (HPC) 117 % of control | dose: 200.0 mg/kg/injection, schedule: Q01DX009 (ip), vehicle: Klucel (hydroxypropylcellulose) (HPC) 98 % of control
